The text below walks through data of patent US5380727A, “Synergistic combination for treating herpes infections” (Bio-Mega, Inc., priority 1990, dated 1995).

For the assay, the system named is HSV-2 (strain HG-52). In words: Inhibition of HSV-2 replication in BHK-21/C13 cell culture (viral titer by neutral red colorimetric assay). It counts as cell-based. The settings on record: Human alphaherpesvirus 2, BHK21 (C13); agent alone; HSV-2 strain HG-52 in BHK-21/C13 cells, 29 h incubation; read-out: IC50 (concentration causing 50% inhibition of virus replication). As to the method:
BHK-21/C13 cells (ATCC CCL 10) are incubated for two days in 150 cm^2 T-flasks (1.5×10^6 cells/flask) with alpha-MEM medium (Gibco Canada Inc., Burlington, Ontario, Canada) supplemented with 8% (v/v) fetal bovine serum (FBS, Gibco Canada Inc.). The cells are trypsinized and then transferred to fresh media in a 24 well plate to give 2.5×10^5 cells in 750 μL of media per well. The cells are incubated at 37° C. for a period of 6 hours to allow them to adhere to the plate. Thereafter, the cells are washed once with 500 μL of alpha-MEM supplemented with 0.5% (v/v) FBS and then incubated with 750 μL of the same media (low serum) for 3 days. After this period of serum starvation, the low serum medium is removed and the cells are incubated in 500 μL of BBMT for 2 to 3 hours. [BBMT medium is described by P. Brazeau et al., Proc. Natl. Acad. Sci. USA, 79, 7909 (1982).] Thereafter, the cells are infected with HSV-2 (multiplicity of infection=0.02 PFU/cell) in 100 μL of BBMT medium. […]
On completion of the above 2 hour incubation of the BHK-21/C13 cells, the media is replaced with alpha-MEM medium supplemented with 3% (v/v) FBS. The cells are now ready to be infected with the various sample dilutions of virus. […]

Each structure is given as a SMILES string.

For the compound `Nc1nc2c(ncn2COCCO)c(=O)[nH]1` [acyclovir, 9-[(2-hydroxyethoxy)methyl]guanine], the IC50 came to 4 µM.
